The values that follow are results of earlier work, collected in US8607989B2, “Filter composites for drug detoxification” (Vascular Vision Pharmaceutical Co., priority 2009, dated 2013).

Structures are written as SMILES.

The subject of the data set is breast, colon, and gastric cancer; renal cell carcinoma; and sarcoma.

As to `O=C1[O][Pt]2([NH][C@@H]3CCCC[C@H]3[NH]2)[O]C1=O` [Oxaliplatin], the “activity in in vivo studies” value is given as “active”.
